Data as given in paper PMC7767178 (International Journal of Molecular Sciences, 2020).
≈ marks a conversion by molar mass, not a printed value. Where two headings read alike, the source gives them in different places.

Assays:
S. hyicus 437-2 = type: cell-based
mice = assay: Toxic effect on mice; type: in vivo; details: reason for exclusion from the mouse models
trypsin = details: pH 8
pepsin = details: pH 2
[1] = system: A. veronii ACCC61732 genomic DNA; assay: CD spectra of genomic DNA with peptides; type: binding; details: mass ratios 2.5 and 10.0, 10 min, room temperature
Procedure: CD spectra were performed to examine the secondary structure of genomic DNA from A. veronii ACCC61732 after incubation with peptides. […] The mixtures were loaded into a cuvette of 1.0-mm path length and scanned from 190 to 330 nm at 25 °C using a Pistar π-180 CD spectrometer (Applied Photophysics Ltd., Surry, UK).

[2] = system: A. veronii ACCC61732 biofilm; type: cell-based; details: 16× MIC, 24 h, crystal violet
Procedure: Mid-log phase A. veronii ACCC61732 cells (1 × 10^8 CFU/mL, 180 µL) were added into the 96-well plates. […] Effects of peptides on biofilms formation was evaluated by the crystal violet staining as previously described. The untreated bacteria were used as the negative control (A) and fresh TSB medium was used as the blank control (A0). The inhibition effect of peptides on early biofilms was determined by the following equation: Biofilms (%) = [(Apeptides − A0)/(A − A0)] × 100.

A. veronii ACCC61732 [3] = assay: Organ injury in peritonitis model, histology; type: in vivo, mice; details: peptides 5 μmol/kg, CIP 1 μmol/kg
Procedure: Livers, kidneys, spleens, and lungs were removed from mice at 24 h and five days post treatment to evaluate the organ injury. After washing with PBS, the organs were fixed in 4% paraform-aldehyde for 24 h at 4 °C, dehydrated by a graded series of ethanol (75‒95%), and infiltrated with xylene. The organs were then embedded in paraffin wax, sectioned, and stained with hematoxylin and eosin. Finally, the tissue samples were fixed and observed by the light microscope. The CIP-treated mice served as the positive control and the PBS group served as the negative control.

A. veronii ACCC61732 [4] = assay: Mouse peritonitis model, bacterial translocation to organs; type: in vivo, ICR mice; details: 1 μmol/kg, 24 h post-treatment, colony counting
Procedure: Sera and organs (livers, kidneys, spleens, and lungs) were collected from the mice at 24 h post-treatment. The organs were homogenized in sterile PBS to evaluate bacterial translocation by colony counting. The levels of cytokines (TNF-α, IL-1β, IL-6, and IL-10) in sera were detected using the ELISA kits.

Row | Structure (SMILES) | MIC (S. hyicus 437-2) [µM] | MIC (S. hyicus 437-2; S. hyicus 437-2 (clinical isolate, pig farm), broth dilution, 37 °C, 16–18 h, three experiments) [µg/mL] | toxicity in mice (mice) | MIC after trypsin treatment (trypsin) | MIC after pepsin treatment (pepsin) [µg/mL] | effect on CD spectrum of genomic DNA [1] | inhibition of early biofilm [2] [%] | effect on injury of liver, spleen, kidney and lung (A. veronii ACCC61732 [3]) | reduction of bacteria in kidneys (A. veronii ACCC61732 [4]) [%] | reduction of bacteria in livers (A. veronii ACCC61732 [4]) [%] | reduction of bacteria in lung (A. veronii ACCC61732 [4]) [%] | reduction of bacteria in spleens (A. veronii ACCC61732 [4]) [%]
1 | CC(C)[C@@H]1NC(=O)CNC(=O)[C@H](CC(N)=O)NC(=O)[C@H](CCCNC(=N)N)NC(=O)[C@H](Cc2ccc(O)cc2)NC(=O)[C@H](C(C)C)NC(=O)[C@@H](NC(=O)[C@@H](NC(=O)[C@H](CC(N)=O)NC(=O)[C@H](Cc2c[nH]c3ccccc23)NC(=O)[C@H](C)NC(=O)[C@H](Cc2ccccc2)NC(=O)[C@H](CCCN)N=C(N(C)C)N(C)C)C(C)C)CSSC[C@@H](C(=O)N[C@@H](Cc2c[nH]cn2)C(=O)N[C@@H](CCCNC(=N)N)C(=O)N[C@@H](CCCNC(=N)N)C(=O)N[C@@H](C)C(=O)N[C@@H](CC(N)=O)C(N)=O)NC(=O)[C@H](C(C)C)NC(=O)[C@H](CCCNC(=N)N)NC1=O (stereo in doubt) [Guo-N6NH2] | 12.16 | 32 | toxic effect on mice | lost their activity | 8 (≈ 3.04 µM) | do not affect the double helix of genomic DNA | – | – | – | – | – | –
2 | O=C(O)c1cn(C2CC2)c2cc(N3CCNCC3)c(F)cc2c1=O [CIP, ciprofloxacin, reference compound] | – | – | – | – | – | – | 70.75 | weak therapeutic effect | 60.14 | 54.55 | 62.27 | 53.62
